The record followed here is patent publication US20110218188A1, “SUBSTITUTED (PYRIDYL)-AZINYLAMINE DERIVATIVES AS FUNGICIDES” (priority 2008, published 2011).

SMILES strings stand for the structures.

The first data set can be described thus: Measurement of logP values by HPLC on reversed phase columns (EEC directive 79/831 Annex V.A8). In kind it is physicochemical. The conditions noted are these: pH 2.3.
On to `COC1CCCN(C(=O)c2cc(-c3ncnc(Nc4cccc(Cl)c4)n3)ccn2)C1` (centres unmarked) [Example B179], for which the “logP [b]” value is 2.76[b].

The data set is the same for the next values; noted with them: pH 2.7.
As usually defined, the logP is a log measure of how a compound divides between an organic and an aqueous phase. Lower therefore signals lower lipophilicity. `O=C(NCCCN1CCCCCC1=O)c1cc(Nc2nccc(-c3ccnc(C(=O)NCCCN4CCCCCC4=O)c3)n2)ccn1` [Example A21] registered a logP of 2.33.

As for `CCC(=NO)c1cc(-c2ncnc(Nc3cccc(Cl)c3)n2)ccn1` (mixture of isomers) [Example B64], the logP was found to be 3.24.

`CCC(COC)NC(=O)c1cc(-c2ncnc(Nc3cccc(Cl)c3)n2)ccn1` (centres unmarked) [B89]: the logP stood at 3.8.

Compound `CN(CCC#N)C(=O)c1cc(-c2ncnc(Nc3cc(F)ccc3F)n2)ccn1` [Example B237] returned a logP of 2.1.

Compound `CC(C)N(C)C(=O)c1cc(-c2ncnc(Nc3ccsc3)n2)ccn1` [Example C20] gave a logP of 2.37.

The term chromatographic logP denotes a lipophilicity value derived from retention on a column. In the case of `CCOC(=N)c1cc(-c2ncnc(Nc3cccc(Cl)c3)n2)ccn1` [Example B102, ethyl 4-{4-[(3-chlorophenyl)amino]-1,3,5-triazin-2-yl}pyridine-2-carboximidoate], the chromatographic logP came to 2.08.

Consider `COCCNC(=O)c1cc(-c2ncnc(Nc3ccc(C)c(Cl)c3)n2)ccn1` [Example B227], for which the logP was determined as 3.48.

Turning to `CC(C)CN(C)C(=O)c1cc(-c2ncnc(Nc3cccc(C(F)(F)F)c3)n2)ccn1` [Example B362], the logP worked out at 3.58.

`CCCCN(C)C(=O)c1cc(-c2ncnc(Nc3cccc(F)c3)n2)ccn1` [Example B376] had a logP of 3.09.

The compound `CCN(CC)C(=O)c1cc(-c2ncnc(Nc3cccc(OC(F)(F)C(F)F)c3)n2)ccn1` [Example B348] had a logP of 3.29.

In turn, `CN(CC(F)F)C(=S)c1cc(-c2ncnc(Nc3ccc(F)c(C(F)F)c3)n2)ccn1` [Example B342] gave a logP of 3.35.

`CCC(=NOCc1c(Cl)cccc1Cl)c1cc(-c2ncnc(Nc3cccc(Cl)c3)n2)ccn1` (mixture of isomers) [B69]: the logP came out at 6.53.

For the compound `CC(C)CN(C)C(=O)c1cc(-c2ncnc(Nc3ccncc3)n2)ccn1` [Example C18], the logP is 1.19.

Consider `CN(C)C(=S)c1cc(-c2ncnc(Nc3cccc(C(F)F)c3)n2)ccn1` [B423], for which the logP amounted to 2.66.

For `CCOC1CCC(NC(=O)c2cc(-c3ncnc(Nc4cccc(Cl)c4)n3)ccn2)CC1` (centres unmarked) [Example B97], the logP is given as 4.39.

`CN(CC1CC1)C(=O)c1cc(-c2ncnc(Nc3ccsc3)n2)ccn1` [Example C15] registered a logP of 2.53.

`CCN(C)C(=S)c1cc(-c2ncnc(Nc3ccccc3)n2)ccn1` [Example B318] registered a logP of 2.73.

In turn, `CCN(CC)C(=O)c1cc(-c2ccnc(Nc3ccc(C(C)(C)C)s3)n2)ccn1` [Example A39, 4-{2-[(5-tert-butyl-2-thienyl)amino]pyrimidin-4-yl}-N,N-diethylpyridine-2-carboxamide] showed a chromatographic logP of 3.62.

For the compound `CCCN(CC)C(=O)c1cc(-c2ccnc(Nc3ccnc(Cl)c3)n2)ccn1` [Example A26], the logP was 2.51.

With `C#CCN(c1ccccc1)c1ncnc(-c2ccnc(C(=O)N(C)CC3CC3)c2)n1` [Example B402, N-(cyclopropylmethyl)-N-methyl-4-{4-[phenyl(prop-2-yn-1-yl)amino]-1,3,5-triazin-2-yl}pyridine-2-carboxamide], the chromatographic logP came to 2.98.

In turn, `CCC(COC)NC(=O)c1cc(-c2ncnc(Nc3cccc(SC)c3)n2)ccn1` (centres unmarked) [B216] yielded a logP of 3.69.

In turn, `CCN(CC)C(=S)c1cc(-c2ncnc(Nc3cccc(C(F)(F)F)c3)n2)ccn1` [Example B326] gave a logP of 3.78.

Consider `CCN(CC)C(=O)c1cc(-c2ncnc(Nc3ccc(C)c(Cl)c3)n2)ccn1` [Example B349], for which the logP was 3.44.

For the compound `O=C(c1cc(-c2ncnc(Nc3cccc(Cl)c3)n2)ccn1)N1CCSCC1` [B176], the logP is given as 2.98.

In turn, `CC(C)CN(C)C(=O)c1cc(-c2ncnc(Nc3ccc(F)cc3)n2)ccn1` [Example B19] showed a log partition coefficient (logP) of 2.92.

`CCC(C)NC(=O)c1cc(-c2ncnc(Nc3ccc(C)c(Cl)c3)n2)ccn1` (centres unmarked) [B232]: the logP is reported as 4.49.

`COCCN(C)C(=O)c1cc(-c2ncnc(Nc3cccc(F)c3)n2)ccn1` [Example B9] came in with a logP of 2.26.

As to `CN(CC1CC1)C(=O)c1cc(-c2ncnc(Nc3ccccc3)n2)ccn1` [Example B313], the logP was 2.65.

`CC1CCN(C(=O)c2cc(-c3ncnc(Nc4cccc(Cl)c4)n3)ccn2)CC1` [Example B131] displayed a logP of 3.51.

`COCC(=O)ON=C(N)c1cc(-c2ncnc(Nc3cccc(Cl)c3)n2)ccn1` [Example B104, 4-{4-[(3-chlorophenyl)amino]-1,3,5-triazin-2-yl}-N′-[(methoxyacetyl)oxy]pyridine-2-carboximidamide] registered a chromatographic logP of 2.92.

Take `CN(C)C(=O)c1cc(-c2ncnc(Nc3ccsc3)n2)ccn1` [Example C19]: the logP came out at 1.86.

Regarding `CCON(CC)C(=O)c1cc(-c2ncnc(Nc3ccsc3)n2)ccn1` [Example C31], the logP is recorded as 2.59.

Compound `CCC(=O)c1cc(-c2ncnc(Nc3cccc(Cl)c3)n2)ccn1` [Example B45] showed a logP of 3.79.

In turn, `CC(C)(C)NC(=O)c1cc(-c2ncnc(Nc3cccc(Cl)c3)n2)ccn1` [B98] showed a logP of 4.39.

`CN(CC1CC1)C(=O)c1cc(-c2ncnc(Nc3ccc(F)c(C(F)F)c3)n2)ccn1` [B411] registered a logP of 2.98.

In the case of `CN(CC1CC1)C(=O)c1cc(-c2ncnc(Nc3cccc(C(F)F)c3)n2)ccn1` [Example B287], the logP amounted to 2.82.

The compound `CCN(CC(C)(C)O)C(=O)c1cc(-c2ncnc(Nc3cccc(Cl)c3)n2)ccn1` [Example B166] yielded a logP of 2.66.

`CCC(=NOCCN(C)C)c1cc(-c2ncnc(Nc3cccc(Cl)c3)n2)ccn1` (mixture of isomers) [B49] returned a logP of 2.06.

For the compound `CN(C(=O)c1cc(-c2ncnc(Nc3cccc(Cl)c3)n2)ccn1)C1CCCCC1` [Example B144], the logP was 3.89.

`CCCN(C)C(=O)c1cc(-c2ncnc(Nc3ccc(F)cc3)n2)ccn1` [Example B16] registered a logP of 2.62.

`CCN(CC)C(=O)c1cc(-c2ncnc(Nc3ccc(F)c(F)c3)n2)ccn1` [B351] showed a logP of 2.88.

`O=C(NCC1CC1)c1cc(-c2ncnc(Nc3cccc(Cl)c3)n2)ccn1` [B99] registered a logP of 3.73.

Compound `CCN(C)C(=O)c1cc(-c2ncnc(Nc3cccc(SC)c3)n2)ccn1` [Example B222] registered a logP of 2.6.

The compound `CCCN(C)C(=O)c1cc(-c2ncnc(Nc3ccsc3)n2)ccn1` [Example C14] yielded a logP of 2.45.

Compound `CC(CN(C)C)NC(=O)c1cc(-c2ncnc(Nc3cccc(Cl)c3)n2)ccn1` (centres unmarked) [B66] registered a logP of 1.72.

With `CCCN(C)C(=S)c1cc(-c2ncnc(Nc3cccc(F)c3)n2)ccn1` [Example B13], the logP turned out to be 3.32.

Regarding `CN(CC(F)F)C(=O)c1cc(-c2ncnc(Nc3cccc(Cl)c3)n2)ccn1` [Example B373], the logP was 3.06.

As to `CC(C)N(C)C(=O)c1cc(-c2ncnc(Nc3cccc(C(F)(F)F)c3)n2)ccn1` [B360], the logP was found to be 3.15.

With `CC(C)N(C)C(=O)c1cc(-c2ncnc(Nc3ccc(F)c(C(F)F)c3)n2)ccn1` [Example B396], the logP is recorded as 2.78.

Compound `NC(=NO)c1cc(-c2ncnc(Nc3cccc(Cl)c3)n2)ccn1` [Example B78, 4-{4-[(3-chlorophenyl)amino]-1,3,5-triazin-2-yl}-N′-hydroxypyridine-2-carboximidamide] displayed a chromatographic logP of 2.28.

Compound `C=CCON=C(C)c1cc(-c2ncnc(Nc3cccc(Cl)c3)n2)ccn1` (mixture of isomers) [Example B29] had a logP of 4.7.

As for `O=C(c1cc(-c2ncnc(Nc3ccc(F)c(Cl)c3)n2)ccn1)N1CCCC1` [B190], the lipophilicity (logP) was found to be 3.

With `O=C(c1cc(-c2ncnc(Nc3cccc(Cl)c3)n2)ccn1)N1CCCC1` [Example B28], the logP was determined as 2.88.

`C=CCN(C)C(=O)c1cc(-c2ncnc(Nc3cccc(Cl)c3)n2)ccn1` [Example B127] gave a logP of 2.96.

For the compound `CN(CC(F)F)C(=O)c1cc(-c2ncnc(Nc3ccc(F)c(C(F)F)c3)n2)ccn1` [Example B398], the logP was found to be 2.84.

In the case of `CCN(C)C(=O)c1cc(-c2ncnc(Nc3ccc(F)c(Cl)c3)n2)ccn1` [Example B207], the logP came to 2.75.

Consider `COCc1cccc(Nc2ncnc(-c3ccnc(C(=O)N(C)C(C)C)c3)n2)c1` [Example B246], for which the logP came to 2.42.

For `COCCN(C)C(=O)c1cc(-c2ncnc(Nc3ccc(F)cc3)n2)ccn1` [Example B22], the logP is 3.92.

`CCN(C)C(=S)c1cc(-c2ncnc(Nc3cccc(COC)c3)n2)ccn1` [Example B248] came in with a logP of 2.66.

In turn, `COc1ccc(Nc2ncnc(-c3ccnc(C(=O)N(C)C)c3)n2)cn1` [Example C8] came in with a logP of 1.57.

`C=C(C)CN(CC)C(=O)c1cc(-c2ncnc(Nc3cccc(Cl)c3)n2)ccn1` [Example B156] gave a logP of 3.67.

In the case of `O=C(NCCCN1CCCCCC1=O)c1cc(-c2ccnc(Nc3ccnc(Cl)c3)n2)ccn1` [Example A20], the logP is reported as 2.33.

`O=C(c1cc(-c2ncnc(Nc3cccc(Cl)c3)n2)ccn1)N1CCOCC1` [Example B116] returned a logP of 2.39.

`CC(C)NC(=O)c1cc(-c2ncnc(Nc3cccc(Cl)c3)n2)ccn1` [Example B91] yielded a logP of 3.62.

`CSc1cccc(Nc2ncnc(-c3ccnc(C(=O)N4CCCC4)c3)n2)c1` [B211] yielded a logP of 2.82.

Regarding `CCN(CC)C(=S)c1cc(-c2ncnc(Nc3cccc(OC)c3)n2)ccn1` [Example B282], the logP came to 3.15.

On to `COCC(C)NC(=O)c1cc(-c2ncnc(Nc3ccc(F)c(Cl)c3)n2)ccn1` (centres unmarked) [B191], for which the logP amounted to 3.48.

Compound `C#CCN(c1cccc(F)c1)c1ncnc(-c2ccnc(C(=S)N(C)CC)c2)n1` [B345] returned a logP of 3.25.

For `CCCCN(CCC)C(=O)c1cc(-c2ncnc(Nc3cccc(Cl)c3)n2)ccn1` [Example B126], the logP is 4.31.

`COCCNC(=O)c1cc(-c2ncnc(Nc3ccc(F)c(Cl)c3)n2)ccn1` [B193] displayed a logP of 3.08.
